What is called IC50 is the concentration at which inhibition is half-maximal.

Results on one compound are retold here after publication PMC8898874, “NPT1220-312, a TLR2/TLR9 Small Molecule Antagonist, Inhibits Pro-Inflammatory Signaling, Cytokine Release, and NLRP3 Inflammasome Activation” (International Journal of Inflammation, 2022).

In one experiment the target is T1, TLR2/6 (Homo sapiens, UniProt O60603).
T1 construct: host or cells: HEK293 (HEK-Blue hTLR2)
In words: HEK-Blue hTLR2 SEAP reporter assay, Pam2CSK4-activated (TLR2/6). The format is cell-based. The note with it: hTLR2 HEK cells activated with Pam2CSK4; mean of at least three determinations; read-out: IC50 (PAM-2; μM). The source says:
(§1) Human embryonic kidney (HEK) Blue hTLR2 secreted embryonic alkaline phosphatase (SEAP) reporter 293 cells, expressing the human TLR2 gene; HEK-Blue hTLR3 SEAP reporter 293 cells, expressing the human TLR3 gene; HEK-Blue hTLR4 SEAP reporter 293 cells, expressing the human TLR4 gene; HEK-Blue hTLR7 SEAP reporter 293 cells, expressing the human TLR7 gene; and HEK-Blue hTLR8 SEAP reporter 293 cells, expressing the human TLR8 gene. HEK Blue cells expressing recombinant human TLRs were obtained by cotransfection of the human TLR2, TLR3, TLR4, TLR7, TLR8, or TLR9 and SEAP (secreted embryonic alkaline phosphatase) genes into HEK293 cells. The SEAP reporter gene was placed under the control of a minimal promoter fused to five NFĸB and AP-1 binding sites. Stimulation with TLRs ligands activates NFĸB and AP-1 that induce the production of SEAP. Therefore, these cells are designed for studying the stimulation of TLRs by monitoring the activation of NFĸB/AP-1. These NFĸB reporter cell lines were used as a primary screening tool due to their robust and well-characterized responses to TLRs activators and inhibitors. […]

The next experiment concerns the target T2, TLR1/2 (Homo sapiens, UniProt O60603).
T2 construct: host or cells: HEK293 (HEK-Blue hTLR2)
Kind of experiment: HEK-Blue hTLR2 SEAP reporter assay, Pam3CSK4-activated (TLR1/2). The format is cell-based. Conditions: hTLR2 HEK cells activated with Pam3CSK4; mean of at least three determinations; read-out: IC50 (PAM-3; μM).
Source text: as §1
For orientation: A reporter such as luciferase makes a cellular process visible.

T2 sequence (O60603 21-784): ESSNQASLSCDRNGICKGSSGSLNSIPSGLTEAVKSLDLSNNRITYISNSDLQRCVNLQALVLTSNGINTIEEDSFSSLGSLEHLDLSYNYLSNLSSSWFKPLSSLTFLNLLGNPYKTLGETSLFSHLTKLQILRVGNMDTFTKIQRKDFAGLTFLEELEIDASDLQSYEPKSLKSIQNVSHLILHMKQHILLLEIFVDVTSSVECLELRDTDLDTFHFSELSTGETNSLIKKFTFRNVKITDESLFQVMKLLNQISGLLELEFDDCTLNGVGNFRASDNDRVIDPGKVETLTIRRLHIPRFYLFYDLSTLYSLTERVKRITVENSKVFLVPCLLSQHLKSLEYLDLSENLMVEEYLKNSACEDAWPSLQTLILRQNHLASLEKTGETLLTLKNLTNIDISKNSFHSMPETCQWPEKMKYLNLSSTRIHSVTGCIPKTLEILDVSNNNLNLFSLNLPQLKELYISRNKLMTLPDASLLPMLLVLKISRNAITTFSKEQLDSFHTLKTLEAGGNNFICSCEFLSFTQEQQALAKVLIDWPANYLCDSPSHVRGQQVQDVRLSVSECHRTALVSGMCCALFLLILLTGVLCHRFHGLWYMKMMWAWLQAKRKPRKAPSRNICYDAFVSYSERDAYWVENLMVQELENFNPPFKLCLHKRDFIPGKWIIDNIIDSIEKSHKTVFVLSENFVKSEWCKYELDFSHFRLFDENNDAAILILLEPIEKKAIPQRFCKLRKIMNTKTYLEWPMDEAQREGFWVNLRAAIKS
T1 sequence (O60603 21-784): as above

Consider `COc1cccc(C=O)c1O` [O-vanillin], for which the half-inhibitory concentration (IC50) at TLR2/6 was 61.6 µM; at TLR1/2, 40.2 µM.
